MIC data for two molecules are collected here from patent US4822787A, “3-pyrrolidinylthio-1-azabicyclo(3.2.0)-hept-2-ene-2-carboxylic acid compounds and antimicrobial activity thereof” (Fujisawa Pharmaceutical Co., Ltd., priority 1986, dated 1989).

What all share (type): cell-based
One assay concerns P. aeruginosa 3036. Nature of the assay: in vitro Antimicrobial Activity, two-fold agar-plate dilution method (MIC), P. aeruginosa 3036. Conditions: Pseudomonas aeruginosa, Mueller Hinton agar, 37° C., 20 hours, read-out: minimal inhibitory concentration (MIC). The protocol:
(§1) in vitro Antimicrobial Activity was determined by the two-fold agar-plate dilution method as described below. One loopful of 100-fold dilution of an overnight culture of a test strain in Mueller Hinton broth (Difco) (approximately 10^6 viable cells per ml) was spot-inoculated on Mueller Hinto agar^(*) (Difco) containing graded concentrations of the test compound, and the minimal inhibitory concentration (MIC) was expressed in terms of μg/ml after incubation at 37° C. for 20 hours.

A further assay concerns H. influenzae 58. Nature of the assay: in vitro Antimicrobial Activity, two-fold agar-plate dilution method (MIC), H. influenzae 58. Conditions: Haemophilus influenzae, added 5% horse blood-chocolate agar, 37° C., 20 hours, read-out: minimal inhibitory concentration (MIC). The protocol: in vitro Antimicrobial Activity was determined by the two-fold agar-plate dilution method as described below. One loopful of 100-fold dilution of an overnight culture of a test strain in Mueller Hinton broth (Difco) (approximately 10^6 viable cells per ml) was spot-inoculated on Mueller Hinto agar^(*) (Difco) containing graded concentrations of the test compound, and the minimal inhibitory concentration (MIC) was expressed in terms of μg/ml after incubation at 37° C. for 20 hours. [(*)added 5% horse blood-chocolate agar for the test of H. influenzae]

The next assay has as its system S. aureus 2496. Kind of assay: in vitro Antimicrobial Activity, two-fold agar-plate dilution method (MIC), S. aureus 2496. Conditions: Staphylococcus aureus, Mueller Hinton agar, 37° C., 20 hours, read-out: minimal inhibitory concentration (MIC). The protocol:
as §1

For another assay, the system named is E. cloacae 3013. Kind of assay: in vitro Antimicrobial Activity, two-fold agar-plate dilution method (MIC), E. cloacae 3013. Conditions: Enterobacter cloacae, Mueller Hinton agar, 37° C., 20 hours, read-out: minimal inhibitory concentration (MIC). Here is the method:
as §1

Molecules are shown by their SMILES. ≈ marks a conversion by molar mass, not a printed value. Where only a bound is given, the exact number is not on record here.

On to `C[C@@H](O)[C@H]1C(=O)N2C(C(=O)O)=C(S[C@@H]3CN[C@H](CNC(N)=O)C3)[C@H](C)[C@H]12` [Reference Compound, (4R,5S,6S)-6-[(1R)-1-hydroxyethyl]-4-methyl-7-oxo-3-[(2S,4S)-2-ureidomethylpyrrolidin-4-yl]thio-1-azabicyclo[3.2.0]hept-2-ene-2-carboxylic acid], for which the MIC in the assay with P. aeruginosa 3036 was found to be 1.56 µg/mL (≈ 4.06 µM); in the assay with H. influenzae 58 it was 0.78 µg/mL (≈ 2.03 µM); in the assay with S. aureus 2496 it was 1.56 µg/mL (≈ 4.06 µM); in the assay with E. cloacae 3013, 0.1 µg/mL (≈ 0.26 µM).

`C[C@@H](O)[C@H]1C(=O)N2C(C(=O)O)=C(S[C@@H]3CN[C@H](COCCNC(N)=O)C3)[C@H](C)[C@H]12` [Compound of this invention, (4R,5S,6S)-6-[(1R)-1-hydroxyethyl]-4-methyl-7-oxo-3-[(2S,4S)-2-{(2-ureidoethyl)oxymethyl}pyrrolidin-4-yl]thio-1-azabicyclo[3.2.0]hept-2-ene-2-carboxylic acid]: the MIC with P. aeruginosa 3036 is 0.39 µg/mL (≈ 0.91 µM); in the assay with H. influenzae 58 it was 0.1 µg/mL (≈ 0.233 µM); with S. aureus 2496, 0.05 µg/mL (≈ 0.117 µM); with E. cloacae 3013 it was not above 0.025 µg/mL.
